The term IC50 denotes the concentration needed to halve the response being measured. Low values mean greater potency, high ones weaker potency.

In ChEMBL document CHEMBL3779772, “Synthesis of tetracyclic iminosugars fused benzo[e][1,3]thiazin-4-one and their HIV-RT inhibitory activity” (Bioorg Med Chem Lett, 2016) one finds IC50 data, which are given here for five compounds.

In the assay the target is Human immunodeficiency virus type 1 reverse transcriptase (Human immunodeficiency virus 1, UniProt Q72547). As to the kind of experiment: Inhibition of HIV1 reverse transcriptase using DIG-labeled dNTPs as substrate after 1 hr by ELISA. In general terms: An ELISA detects its analyte on a solid surface through an enzyme-linked reagent.

Molecules are shown by their SMILES.

`O=C1CN2C(=O)c3ccccc3S[C@H]2[C@H]2[C@H](O)[C@H](O)CN12`: half-maximal inhibition (IC50) required 8.21 µM.

For the compound `C[C@H]1C(=O)N2C[C@@H](O)[C@@H](O)[C@@H]2[C@@H]2Sc3ccccc3C(=O)N12`, the IC50 was 9.65 µM.

As to `C[C@@H]1C(=O)N2C[C@@H](O)[C@@H](O)[C@@H]2[C@@H]2Sc3ccccc3C(=O)N12`, it took 2.01 µM to reach half-maximal inhibition (IC50).

Regarding `O=C1CN2C(=O)c3ccccc3S[C@@H]2[C@H]2[C@H](O)[C@H](O)CN12`, the 50% inhibitory concentration (IC50) worked out at 0.82 µM.

In turn, `C[C@H]1C(=O)N2C[C@@H](O)[C@@H](O)[C@@H]2[C@H]2Sc3ccccc3C(=O)N21` gave a 50% inhibitory concentration (IC50) of 4.21 µM.
